One block for each molecule: values may come before it.
Legend:
[1] = 0.5% by mass solution, 0.1 ml on minipig skin, 24 hours, 37° C.; HPLC
Experimental: The above test articles, each 0.5% by mass, were dissolved separately in Dulbecco's PBS (−) containing 10% bovine serum albumin to give test article solutions.
2-cm square skin pieces of minipig (Charles River Laboratories Inc. (United States of America)) were placed in the Netwell (manufactured by Corning Incorporated), and assay rings (Teflon® rings with a center opening) on which a silicon sealant had been applied were pressed and fixed to the epidermis of the skin. Subsequently, 2 ml of a skin culture medium (TOYOBO CO., LTD.) was added to a multiwell plate, and the Netwell was set such that skin lower portions would be soaked. Each of the test article solutions, 0.1 ml, was slowly poured into the opening of assay ring. When no leakage was confirmed, the Netwell was sealed with multiplate seals and were allowed to stand in an incubator at 37° C. and 5% carbon dioxide. […]
The test articles in the tissue extracts were determined by HPLC.
The protein in the tissue extracts was determined by the Lowry method.
400 μl of the reagent 4 was added to a sample tube containing 20 μl of the tissue extract or the standard sample solution, followed by mixing. […] The absorbance at 750 nm was measured with a spectrophotometer, and the protein concentration in the tissue extract was determined using a calibration curve obtained with the standard sample.

[2] = test system: culture skin model (MEL-300) containing melanin cells; settings: for Amount of melanin synthesized (% relative to the control): 0.5% by mass test article solution, 0.1 ml, 11 days of incubation, control = 100%; for inhibition of melanin synthesis compared with tranexamic acid (in words): conclusion from Table 4
Experimental: The above test articles, each 0.5% by mass, were dissolved separately in sterilized water containing 10% bovine serum albumin and 1% DMSO to give test article solutions.
The skin model was cultured for 11 days using the supplied culture medium LLMM. Each article was tested two times. The culture medium was changed every other day during the incubation.
After 11 days of incubation, the skin model was washed and was measured for the cell survival rate by colorimetry (570 nm) with the Alamar Blue reagent (manufactured by Molecular Probe). Thereafter, the melanin synthesized in the skin model was determined in the following manner.
The skin model was soaked overnight in a liquid which consisted of 0.2 ml of a 10 mM tris buffer solution (pH 6.8) containing 1% SDS and 0.05 mM EDTA, and 0.02 ml of 5 mg/ml Proteinase K. On the next day, 0.02 ml of 5 mg/ml Proteinase K was added, followed by heating at 45° C. for 4 hours. Consequently, the skin model was dissolved. The lysate was made alkaline with 0.025 ml of a 500 mM sodium carbonate solution, and was combined with 5 μl of 30% hydrogen peroxide, followed by heating at 80° C. for 30 minutes to perform reaction. To prepare a standard sample solution, 0.24 ml of a melanin solution of known concentration was combined with 0.025 ml of a 500 mM sodium carbonate solution and 5 μl of 30% hydrogen peroxide, followed by heating at 80° C. for 30 minutes to perform reaction.
The standard sample solution and the lysate obtained were each cooled and extracted with 0.1 ml of chloroform/methanol (2/1). The aqueous phase was measured for the absorbance at 405 nm, and the melanin synthesized was determined using a calibration curve obtained with the standard sample.

Determined value, amount of test article in skin tissue extract [1]: 0.034 μmol/mg skin protein
Compound: NC[C@H]1CC[C@H](C(=O)O)CC1 [a, Tranexamic acid, reference compound]
Amount of melanin synthesized (% relative to the control) [2]: 99%

Compound: Cc1c(C)c2c(c(C)c1OC(=O)[C@H]1CC[C@H](CN)CC1)CCC(C)(CCCC(C)CCCC(C)CCCC(C)C)O2.Cl (mixture of isomers) [b, dl-α-Tocopherol tranexamate hydrochloride]
Amount of melanin synthesized (% relative to the control) [2]: 60%
inhibition of melanin synthesis compared with tranexamic acid (in words) [2]: inhibit the melanin synthesis more effectively than tranexamic acid

Compound: Cc1c(OC(=O)[C@H]2CC[C@H](CN)CC2)cc2c(c1C)OC(C)(CCCC(C)CCCC(C)CCCC(C)C)CC2.Cl (mixture of isomers) [c, dl-γ-Tocopherol tranexamate hydrochloride]
Amount of melanin synthesized (% relative to the control) [2]: 44%
inhibition of melanin synthesis compared with tranexamic acid (in words) [2]: inhibit the melanin synthesis more effectively than tranexamic acid
